According to patent publication US20100298141A1, “SUBSTITUTED PYRIDINE N-OXIDE HERBICIDES” (E. I. DU PONT DE NEMOURS AND COMPANY, priority 2007, published 2010):

Tests used:
corn [1] = assay: Test A pre-/postemergence greenhouse test; type: in vivo, Zea mays; details: for Corn plant response rating: 0 to 100 scale
In short: (§1)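 Test compounds in non-phytotoxic solvent with surfactant were applied as a preemergence soil spray to seeded loam/sand pots and, concurrently, postemergence to plants at 2–10 cm, one- to two-leaf stage. About ten days in greenhouse, then injury visually rated against untreated controls.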

soybean = assay: Test C pre-/postemergence test; type: in vivo, Glycine max; details: for Plant response rating, Soybean: scale 0 to 100, 0 no effect, 100 complete control
In short: (§2)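 Compounds in a non-phytotoxic solvent with surfactant applied preemergence to seeded pots and, at the same time, postemergence to plants 2–18 cm tall (1- to 4-leaf stage). Paddy tests: pots flooded to 3 cm, compound applied into the water, depth held throughout.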

crabgrass [2] = assay: Test A pre-/postemergence greenhouse test; type: in vivo, Digitaria sanguinalis; details: for Crabgrass, Large plant response rating: 0 to 100 scale
In short: as §1

green foxtail = assay: Test C pre-/postemergence test; type: in vivo, Setaria viridis; details: for Plant response rating, Foxtail, Green: scale 0 to 100, 0 no effect, 100 complete control
In short: as §2

Goosegrass = assay: Test C pre-/postemergence test; type: in vivo, Eleusin indica; details: for Plant response rating, Goosegrass: scale 0 to 100, 0 no effect, 100 complete control
In short: as §2

johnsongrass = assay: Test C pre-/postemergence test; type: in vivo, Sorghum halepense; details: for Plant response rating, Johnsongrass: scale 0 to 100, 0 no effect, 100 complete control
In short: as §2

bermudagrass = assay: Test C pre-/postemergence test; type: in vivo, Cynodon dactylon; details: for Plant response rating, Bermudagrass: scale 0 to 100, 0 no effect, 100 complete control
In short: as §2

barnyardgrass [3] = assay: Test A pre-/postemergence greenhouse test; type: in vivo, Echinochloa crus-galli; details: for Barnyardgrass plant response rating: 0 to 100 scale
In short: as §1

barnyardgrass [4] = assay: Test C flooded paddy test; type: in vivo, Echinochloa crus-galli; details: Flood
In short: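 Test compounds are applied straight into paddy water held 3 cm above the soil surface, with that flood maintained for the whole test. After 13 to 15 days in the greenhouse, each species is scored visually relative to controls.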

pigweed = assay: Test C pre-/postemergence test; type: in vivo, Amaranthus retroflexus; details: for Plant response rating, Pigweed: scale 0 to 100, 0 no effect, 100 complete control
In short: as §2

Italian ryegrass = assay: Test C pre-/postemergence test; type: in vivo, Lolium multiflorum; details: for Ryegrass, Italian plant response rating: preemergence, scale 0 (no effect) to 100 (complete control); for Plant response rating, Ryegrass, Italian: scale 0 to 100, 0 no effect, 100 complete control
In short: as §2

crabgrass [5] = assay: Test C pre-/postemergence test; type: in vivo, Digitaria sanguinalis; details: for Plant response rating, Crabgrass, Large: scale 0 to 100, 0 no effect, 100 complete control
In short: as §2

velvetleaf = assay: Test A pre-/postemergence greenhouse test; type: in vivo, Abutilon theophrasti; details: for Velvetleaf plant response rating: 0 to 100 scale
In short: as §1

corn [6] = assay: Test C pre-/postemergence test; type: in vivo, Zea mays; details: for Plant response rating, Corn: scale 0 to 100, 0 no effect, 100 complete control
In short: as §2

yellow nutsedge = assay: Test C pre-/postemergence test; type: in vivo, Cyperus esculentus; details: for Plant response rating, Nutsedge, Yellow: scale 0 to 100, 0 no effect, 100 complete control
In short: as §2

[7] = Postemergence, 125 g ai/ha, 0 is no effect, 100 is complete control
[8] = Postemergence, 500 g ai/ha, 0 is no effect, 100 is complete control
[9] = Preemergence, 125 g ai/ha, 0 no effect, 100 complete control
[10] = Preemergence, 500 g ai/ha, 0 to 100 scale where 0 is no effect and 100 is complete control
[11] = preemergence, 125 g ai/ha, scale 0 (no effect) to 100 (complete control)
[12] = 31 g ai/ha, Preemergence, scale 0 to 100
[13] = 62 g ai/ha, preemergence, scale 0 (no effect) to 100 (complete control)

## Cc1cc[n+]([O-])c(S(=O)(=O)Cc2c(C(F)(F)F)nn(C)c2OC(F)F)c1 [Compound 2]
Corn [1]; [7]
  Corn plant response rating: 60
Corn [1]; [8]
  Corn plant response rating: 60
Corn [1]; [9]
  Corn plant response rating: 0
Corn [1]; [10]
  Plant response rating, Corn: 40
soybean; Postemergence, 31 g ai/ha
  Plant response rating (0 to 100), Soybean: 40
soybean; Postemergence, 62 g ai/ha
  Plant response rating (0 to 100), Soybean: 50
soybean; Postemergence, 125 g ai/ha
  Plant response rating, Soybean: 50
soybean; Postemergence, 250 g ai/ha
  Plant response rating, Soybean: 50
soybean; Preemergence, 250 g ai/ha
  Plant response rating (0 to 100), Soybean: 70
soybean; [11]
  Soybean plant response rating: 50
Crabgrass [2]; [7]
  Crabgrass, Large plant response rating: 70
Crabgrass [2]; [8]
  Crabgrass, Large plant response rating: 90
Crabgrass [2]; [9]
  Crabgrass, Large plant response rating: 90
Crabgrass [2]; [10]
  Plant response rating, Crabgrass, Large: 100
Green foxtail; [12]
  Foxtail, Green plant response rating: 100
Green foxtail; [13]
  Foxtail, Green plant response rating: 100
Green foxtail; Postemergence, 31 g ai/ha
  Plant response rating (0 to 100), Foxtail, Green: 0
Green foxtail; Postemergence, 62 g ai/ha
  Plant response rating, Foxtail, Green: 0
Green foxtail; Postemergence, 125 g ai/ha
  Plant response rating, Foxtail, Green: 20
Green foxtail; Postemergence, 250 g ai/ha
  Plant response rating, Foxtail, Green: 50
Green foxtail; Preemergence, 250 g ai/ha
  Plant response rating (0 to 100), Foxtail, Green: 100
Green foxtail; [11]
  Foxtail, Green plant response rating: 100
Goosegrass; [12]
  Goosegrass plant response rating: 80
Goosegrass; [13]
  Goosegrass plant response rating: 100
Goosegrass; Postemergence, 31 g ai/ha
  Plant response rating (0 to 100), Goosegrass: 0
Goosegrass; Postemergence, 62 g ai/ha
  Plant response rating, Goosegrass: 0
Goosegrass; Postemergence, 125 g ai/ha
  Plant response rating, Goosegrass: 0
Goosegrass; Postemergence, 250 g ai/ha
  Plant response rating, Goosegrass: 0
Goosegrass; Preemergence, 250 g ai/ha
  Plant response rating (0 to 100), Goosegrass: 100
Goosegrass; [11]
  Goosegrass plant response rating: 100
johnsongrass; [12]
  Johnsongrass plant response rating: 30
johnsongrass; [13]
  Johnsongrass plant response rating: 95
johnsongrass; Postemergence, 31 g ai/ha
  Plant response rating (0 to 100), Johnsongrass: 0
johnsongrass; Postemergence, 62 g ai/ha
  Plant response rating, Johnsongrass: 0
johnsongrass; Postemergence, 125 g ai/ha
  Plant response rating, Johnsongrass: 0
johnsongrass; Postemergence, 250 g ai/ha
  Plant response rating, Johnsongrass: 0
johnsongrass; Preemergence, 250 g ai/ha
  Plant response rating (0 to 100), Johnsongrass: 100
johnsongrass; [11]
  Johnsongrass plant response rating: 100
bermudagrass; [12]
  Bermudagrass plant response rating: 100
bermudagrass; [13]
  Bermudagrass plant response rating: 100
bermudagrass; Postemergence, 31 g ai/ha
  Plant response rating (0 to 100), Bermudagrass: 0
bermudagrass; Postemergence, 62 g ai/ha
  Plant response rating, Bermudagrass: 0
bermudagrass; Postemergence, 125 g ai/ha
  Plant response rating, Bermudagrass: 0
bermudagrass; Postemergence, 250 g ai/ha
  Plant response rating, Bermudagrass: 40
bermudagrass; Preemergence, 250 g ai/ha
  Plant response rating (0 to 100), Bermudagrass: 100
bermudagrass; [11]
  Bermudagrass plant response rating: 100
Barnyardgrass [3]; [7]
  Barnyardgrass plant response rating: 70
Barnyardgrass [3]; [8]
  Barnyardgrass plant response rating: 80
Barnyardgrass [3]; [9]
  Barnyardgrass plant response rating: 90
Barnyardgrass [3]; [10]
  Plant response rating, Barnyardgrass: 100
Barnyardgrass [4]; 31 g ai/ha, scale 0 to 100 (0 no effect, 100 complete control)
  Plant response rating, Barnyardgrass: 0
Barnyardgrass [4]; 62 g ai/ha, scale 0 to 100, 0 no effect, 100 complete control, 13 to 15 days
  Plant response rating, Barnyardgrass: 0
Barnyardgrass [4]; 125 g ai/ha, scale 0 to 100, 0 no effect, 100 complete control, 13 to 15 days
  Plant response rating, Barnyardgrass: 55
Barnyardgrass [4]; 250 g ai/ha, scale 0 to 100 (0 no effect, 100 complete control)
  Plant response rating, Barnyardgrass: 85
pigweed; [12]
  Pigweed plant response rating: 100
pigweed; [13]
  Pigweed plant response rating: 100
pigweed; Postemergence, 31 g ai/ha
  Plant response rating (0 to 100), Pigweed: 0
pigweed; Postemergence, 62 g ai/ha
  Plant response rating (0 to 100), Pigweed: 0
pigweed; Postemergence, 125 g ai/ha
  Plant response rating, Pigweed: 0
pigweed; Postemergence, 250 g ai/ha
  Plant response rating, Pigweed: 0
pigweed; Preemergence, 250 g ai/ha
  Plant response rating (0 to 100), Pigweed: 100
pigweed; [11]
  Pigweed plant response rating: 100
Italian ryegrass; 62 g ai/ha
  Ryegrass, Italian plant response rating: 50
Italian ryegrass; Postemergence, 31 g ai/ha
  Plant response rating (0 to 100), Ryegrass, Italian: 0
Italian ryegrass; Postemergence, 62 g ai/ha
  Plant response rating (0 to 100), Ryegrass, Italian: 0
Italian ryegrass; Postemergence, 125 g ai/ha
  Plant response rating, Ryegrass, Italian: 0
Italian ryegrass; Postemergence, 250 g ai/ha
  Plant response rating, Ryegrass, Italian: 0
Italian ryegrass; Preemergence, 250 g ai/ha
  Plant response rating (0 to 100), Ryegrass, Italian: 100
Italian ryegrass; 125 g ai/ha
  Ryegrass, Italian plant response rating: 50
Crabgrass [5]; [12]
  Crabgrass, Large plant response rating: 70
Crabgrass [5]; [13]
  Crabgrass, Large plant response rating: 100
Crabgrass [5]; Postemergence, 31 g ai/ha
  Plant response rating (0 to 100), Crabgrass, Large: 0
Crabgrass [5]; Postemergence, 62 g ai/ha
  Plant response rating, Crabgrass, Large: 0
Crabgrass [5]; Postemergence, 125 g ai/ha
  Plant response rating, Crabgrass, Large: 0
Crabgrass [5]; Postemergence, 250 g ai/ha
  Plant response rating, Crabgrass, Large: 40
Crabgrass [5]; Preemergence, 250 g ai/ha
  Plant response rating (0 to 100), Crabgrass, Large: 100
Crabgrass [5]; [11]
  Crabgrass, Large plant response rating: 100
velvetleaf; [7]
  Velvetleaf plant response rating: 60
velvetleaf; [8]
  Velvetleaf plant response rating: 80
velvetleaf; [9]
  Velvetleaf plant response rating: 70
velvetleaf; [10]
  Plant response rating, Velvetleaf: 90
Corn [6]; [12]
  Corn plant response rating: 0
Corn [6]; [13]
  Corn plant response rating: 5
Corn [6]; Postemergence, 31 g ai/ha
  Plant response rating (0 to 100), Corn: 0
Corn [6]; Postemergence, 62 g ai/ha
  Plant response rating, Corn: 0
Corn [6]; Postemergence, 125 g ai/ha
  Plant response rating, Corn: 0
Corn [6]; Postemergence, 250 g ai/ha
  Plant response rating, Corn: 0
Corn [6]; Preemergence, 250 g ai/ha
  Plant response rating (0 to 100), Corn: 85
Corn [6]; [11]
  Corn plant response rating: 45
Yellow nutsedge; [12]
  Nutsedge, Yellow plant response rating: 0
Yellow nutsedge; [13]
  Nutsedge, Yellow plant response rating: 95
Yellow nutsedge; Postemergence, 31 g ai/ha
  Plant response rating (0 to 100), Nutsedge, Yellow: 0
Yellow nutsedge; Postemergence, 62 g ai/ha
  Plant response rating, Nutsedge, Yellow: 0
Yellow nutsedge; Postemergence, 125 g ai/ha
  Plant response rating, Nutsedge, Yellow: 0
Yellow nutsedge; Postemergence, 250 g ai/ha
  Plant response rating, Nutsedge, Yellow: 0
Yellow nutsedge; Preemergence, 250 g ai/ha
  Plant response rating (0 to 100), Nutsedge, Yellow: 100
Yellow nutsedge; [11]
  Nutsedge, Yellow plant response rating: 95
